Test results from ChEMBL document CHEMBL1151974, “Sesquiterpenoids and phenylpropanoids from pericarps of Illicium oligandrum” (2009).

How the values were obtained:
SH-SY5Y [1] = experiment: Neuroprotective activity against H2O2-induced human SH-SY5Y cell damage assessed as increase in cell viability at 1 uM pretreated 2 hrs before H2O2 challenge relative to control; type: functional
SH-SY5Y [2] = experiment: Neuroprotective activity against H2O2-induced human SH-SY5Y cell damage assessed as increase in cell viability at 10 uM pretreated 2 hrs before H2O2 challenge relative to control; type: functional

Compound	Activity (SH-SY5Y [1]) [%]	Activity (SH-SY5Y [2]) [%]
C[C@@]12COC(=O)[C@]1(C)[C@@H](O)[C@]13CC(=O)O[C@@]1(C)CC[C@]23O [ANISLACTONE B]	12.55	
COc1ccc([C@@H](O)[C@H](C)O)cc1 (relative stereo) [ERYTHRO ANETHOLE GLYCOL]		7.29
VITAMIN E		7.16
COc1ccc([C@@H]2O[C@@H]3[C@@H](O[C@H]2C)O[C@H](CO)[C@@H](O)[C@@H]3O)cc1 [OLIGANDRUMIN E]		6.42
C[C@]12COC(=O)C[C@@]3(CC(=O)[C@]1(C)O)[C@]2(O)CC[C@]3(C)O	2.76	
C[C@@H]1[C@H](O)C[C@]23OC(=O)C[C@]12C[C@]1(O)OC[C@]3(C)[C@@H]1C [PSEUDOMAJUCIN]		2.83
